Assay results from patent publication US8153658B2, “Piperidine derivative or salt thereof” (Astellas Pharma, Inc., priority 2006, dated 2012).
Structures can show the parent of a compound that is named as a salt.

How the values were obtained:
human CaSR = target: T1, human CaSR (Homo sapiens, UniProt P41180); experiment: Human calcium sensing receptor (CaSR) agonism test (Fluo-3 / FLIPR); format: cell-based; conditions: HEK 293 cell stably expressing human CaSR; 0.5 mM Ca2+; 2 mM Ca2+ group = 100%; read-out: EC50 (compound concentration showing 50% human CaSR agonistic activity)
T1 construct: a human CaSR open reading frame (ORF) was contained in the pcDNA3.1/Zeo(+) vector; expressed in transfected cells
T1 sequence (P41180 20-1078): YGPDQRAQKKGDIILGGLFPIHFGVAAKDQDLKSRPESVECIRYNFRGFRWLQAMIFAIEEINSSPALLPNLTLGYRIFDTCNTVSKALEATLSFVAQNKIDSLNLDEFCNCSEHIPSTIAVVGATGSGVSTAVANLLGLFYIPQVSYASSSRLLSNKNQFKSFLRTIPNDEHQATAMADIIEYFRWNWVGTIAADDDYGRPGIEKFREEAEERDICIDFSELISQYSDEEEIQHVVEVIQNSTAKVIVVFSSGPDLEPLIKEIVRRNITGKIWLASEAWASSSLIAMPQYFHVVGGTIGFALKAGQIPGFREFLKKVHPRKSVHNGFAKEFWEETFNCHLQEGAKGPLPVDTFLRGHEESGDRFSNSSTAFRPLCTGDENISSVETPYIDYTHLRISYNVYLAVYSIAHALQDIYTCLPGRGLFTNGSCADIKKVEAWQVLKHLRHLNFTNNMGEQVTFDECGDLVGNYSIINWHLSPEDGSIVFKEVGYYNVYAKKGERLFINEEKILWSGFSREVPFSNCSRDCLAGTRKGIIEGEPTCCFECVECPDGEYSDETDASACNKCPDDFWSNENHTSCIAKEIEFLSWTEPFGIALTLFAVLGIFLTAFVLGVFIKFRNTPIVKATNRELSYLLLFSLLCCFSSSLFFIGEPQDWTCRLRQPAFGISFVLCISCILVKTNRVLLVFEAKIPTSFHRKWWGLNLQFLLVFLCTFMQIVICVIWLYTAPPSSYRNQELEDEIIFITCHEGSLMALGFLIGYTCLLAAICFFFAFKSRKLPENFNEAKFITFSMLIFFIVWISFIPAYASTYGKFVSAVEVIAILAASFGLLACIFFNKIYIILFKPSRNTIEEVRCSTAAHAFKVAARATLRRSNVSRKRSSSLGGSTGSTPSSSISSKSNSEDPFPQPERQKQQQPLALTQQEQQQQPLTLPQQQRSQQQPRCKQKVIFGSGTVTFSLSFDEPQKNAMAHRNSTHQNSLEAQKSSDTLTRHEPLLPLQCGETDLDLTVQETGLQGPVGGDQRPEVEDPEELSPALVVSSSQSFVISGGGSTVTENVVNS
Text: Test 1. Human calcium sensing receptor (CaSR) agonism test
1) Preparation of Human CaSR Expression Vector
A DNA fragment coding for human CaSR was cloned in the standard method.
Illustratively, using 203 to 2387 of NM_000388 as a DNA fragment D4, and 2210 to 3633 as a DNA fragment B2, they were amplified using a human kidney cDNA (manufactured by Invitrogen) as the template and using a DNA polymerase (a registered trade name: Pyrobest, manufactured by Takara Bio), and respectively cloned into a pCR2.1 vector using a pCR2.1-Topo vector (manufactured by Invitrogen). Next, the DNA fragments prepared by digesting the pCR2.1-D4 with SpeI and XbaI were inserted into the same sites of pcDNA3.1/Zeo(+) vector. Successively, the fragments prepared by digesting pCR2.1-B2 with SacI and XbaI were inserted into the SacI and XbaI sites of previously prepared pcDNA3.1/Zeo(+)-D4(SpeI-XbaI), thereby obtaining a human CaSR expression vector pcDNA3.1/Zeo(+)-hCaSR in which a human CaSR open reading frame (ORF) was contained in the pcDNA3.1/Zeo(+) vector.
2) Preparation of Human CaSR Expression Cell
The human CaSR expression vector was transferred into a HEK 293 cell using a transfection reagent (registered trademark: FuGene 6, manufactured by Roche Diagnostics). After the gene transfer, this was cultured in a DMEM (manufactured by Invitrogen) medium containing 40 μg/ml Zeocin (registered trademark, manufactured by Invitrogen) and a 10% fetal bovine serum at 37° C. for 2 weeks in the presence of 5% CO2, thereby obtaining Zeocin-resistant clones. A human CaSR stably expressing HEK 293 clone was obtained from these clones by selection using the responsiveness to extracellular Ca^2+ as an index.
3) Human CaSR Agonism Test
The HEK 293 cell stably expressing human CaSR was inoculated into a poly-D-lysine-coated black clear bottom 96 well plate (manufactured by BD Biosciences). Hanks' balanced salt solution (HBSS) (Ca^2+ (−), Mg^2+ (−), manufactured by Invitrogen) containing a 20 mM HEPES (2-[4-(2-hydroxyethyl)-1-piperazinyl]ethanesulfonic acid) buffer (pH 7.4), 2.5 mM of probenecid (manufactured by Sigma), and 0.1% of bovine serum albumin was prepared as a washing buffer. After the inoculation and the subsequent overnight culturing, the medium was discarded, the washing buffer supplemented with 1 mM CaCl2 and 10 μM Fluo-3 AM (trade name, manufactured by DOJINDO) was added thereto in 100 μl per well portions, and then the incubation was carried out at 37° C. for 1 hour in the presence of 5% CO2. This was washed twice with 200 μl of the washing buffer, replaced by 100 μl of the washing buffer supplemented with 0.5 mM CaCl2 and allowed to stand still for 10 minutes, and then the responsiveness to each compound to be evaluated was detected using a plate reader for fluorometry image analysis use (registered trademark: FLIPR, manufactured by Molecular Devices). In this connection, the compound to be evaluated was used by optionally diluting with the washing buffer supplemented with 0.5 mM Ca^2+.
The human CaSR agonistic activity strength of each compound to be evaluated was calculated by defining the solvent group as 0% and the 2 mM of Ca^2+ in the final concentration group as 100%, and the compound concentration showing 50% activity (EC50) was calculated from a concentration-activity curve by the method of least squares.

[1] = Measurement of rat plasma calcium concentration; format: in vivo; conditions: normal male rats, single oral administration 3 mg/kg, 2 hours after administration, read-out: Rat plasma calcium concentration reducing ratio (%) 2 hours after administration (3 mg/kg)
Method: Test 2. Measurement of Rat Plasma Calcium Concentration and Plasma PTH Concentration
The compounds of the present invention were administered to rats, and their influences upon the plasma calcium concentration and the plasma PTH concentration were examined. The test was carried out by single oral administration of the compounds of the present invention and the control compounds to 5 to 6 normal male rats, or male rats with renal failure, respectively As a vehicle group, 0.5% of a methyl cellulose (MC) solution was administered at a dose of 5 ml/kg. As a reference compound, cinacalcet was dissolved in the MC solution and administered at a dose of 3 mg/kg. Each of the compounds of the present invention was dissolved or suspended in the MC solution, and administered at a dose of 1, 3 or 10 mg/kg.
Blood samples were collected from the orbital venous plexus under ether anesthesia before the administration and 2 hours, 4 hours, or 8 hours in some cases, after the administration, and the plasma calcium concentration was measured using Calcium E-Test Wako (manufactured by Wako Pure Chemical Industries), and the plasma PTH concentration was measured using a Rat Intact PTH ELISA Kit (manufactured by Immutopics).

CYP2D6 = CYP2D6 (Homo sapiens, UniProt P10635); experiment: Human CYP2D6 inhibition test; format: biochemical; set-up: purchased BD Gentest 456217; conditions: CYP2D6 7.5 pmol/mL; fluorescence substrate AMMC 1.5 μM; 37° C. 30 minutes
CYP2D6, sequence (P10635 whole entry): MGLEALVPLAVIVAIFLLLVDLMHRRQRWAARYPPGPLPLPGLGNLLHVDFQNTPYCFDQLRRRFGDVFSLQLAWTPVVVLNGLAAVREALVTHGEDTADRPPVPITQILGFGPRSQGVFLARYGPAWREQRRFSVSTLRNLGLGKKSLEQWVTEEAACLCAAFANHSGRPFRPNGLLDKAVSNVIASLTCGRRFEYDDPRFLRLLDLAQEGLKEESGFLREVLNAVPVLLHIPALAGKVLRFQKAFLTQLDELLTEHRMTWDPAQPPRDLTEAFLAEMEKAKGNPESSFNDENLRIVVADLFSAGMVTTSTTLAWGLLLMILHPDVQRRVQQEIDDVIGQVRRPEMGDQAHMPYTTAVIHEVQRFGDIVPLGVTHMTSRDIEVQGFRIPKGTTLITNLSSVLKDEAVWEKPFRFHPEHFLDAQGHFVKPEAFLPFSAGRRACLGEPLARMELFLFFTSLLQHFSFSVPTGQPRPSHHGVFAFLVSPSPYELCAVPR
Method: Test 3. Human CYP2D6 Inhibition Test
Inhibitory activity evaluation for CYP2D6 was carried out by measuring it in accordance, roughly, with a reference (“Drug Metabolism and Disposition”, 2001, vol. 29, p. 1196-1200).
Final concentrations of the reagents in the enzyme reaction solution were respectively set to CYP2D6=7.5 pmol/mL (manufactured by BD Gentest, Catalog No. 456217), reduced type nicotinamide adenine dinucleotide phosphate (NADPH) regeneration system (0.0081 mM nicotinamide adenine dinucleotide phosphate (NADP+), 0.41 mM glucose-6-phosphate, 0.41 mM MgCl2, 0.4 units glucose-6-phosphate dehydrogenase), and a fluorescence substrate AMMC=1.5 μM, 100 mM potassium phosphate buffer (pH 7.4). Each compound was made into a 50% acetonitrile solution and added to the enzyme reaction solution (acetonitrile final concentration 2.5%). The enzyme reaction was carried out at 37° C. for 30 minutes, the reaction was stopped using a stopping liquid (0.1 M tris(hydroxymethyl)aminomethane (Tris-base):acetonitrile=20:80), and the fluorescence intensity was then measured. The concentration showing 50% inhibition (IC50) was calculated from the thus obtained fluorescence intensity, by defining the enzyme activity at a time of no compound addition as 100%.

Compound | EC50 (human CaSR) [nM] | IC50 (CYP2D6) [nM] | inhibition in vivo at 3 mg/kg [1] [%]
C[C@@H](NCC1CCN(c2ccc(C(=O)O)cn2)CC1c1ccccc1F)c1cccc2ccccc12 (some centres unmarked) [Example 104] | 14 |  | 
C[C@@H](NCC1CCN(c2cc(C(F)(F)F)c(C(=O)O)cn2)CC1c1cccc(F)c1)c1cccc2ccccc12 (some centres unmarked) [Example 98] | 17 | ≥ 20000 | 
C[C@@H](NCC1CCN(c2c(F)cc(-c3nnn[nH]3)cc2F)CC1c1ccccc1)c1cccc2ccccc12 (stereo partly drawn) [Example 53, (1R)—N-({1-[2,6-difluoro-4-(1H-tetrazol-5-yl)phenyl]-3-phenylpiperidin-4-yl}methyl)-1-(1-naphthyl)ethaneamine hydrochloride] | 3.8 |  | 20
C[C@@H](NCC1CN(C(=O)Nc2ccc(C(=O)O)cc2)CCC1c1cccc(F)c1)c1cccc2ccccc12 (stereo partly drawn) [Example 13, 4-({[4-(3-fluorophenyl)-3-({[(1R)-1-(1-naphthyl)ethyl]amino}methyl)piperidin-1-yl]carbonyl}amino)benzoic acid hydrochloride] | 2.9 | ≥ 20000 | 
C[C@@H](NCC1CCN(c2ncc(C(=O)O)cc2Cl)CC1c1ccccc1F)c1cccc2ccccc12 (stereo partly drawn) [Example 32, 5-chloro-6-[3-(2-fluorophenyl)-4-({[(1R)-1-(1-naphthyl)ethyl]amino}methyl)piperidin-1-yl]nicotinic acid hydrochloride] | 7.5 |  | 34
C[C@@H](NCC1CCN(c2c(F)cc(C(=O)O)cc2F)CC1c1ccccc1)c1csc2ccccc12 (some centres unmarked) [Example 87] | 11 | ≥ 20000 | 
COc1cccc([C@@H](C)NCC2CCN(c3ncc(C(=O)O)cc3Cl)CC2c2ccccc2)c1 (stereo partly drawn) [Example 33, 5-chloro-6-[4-({[(1R)-1-(3-methoxyphenyl)ethyl]amino}methyl)-3-phenylpiperidin-1-yl]nicotinic acid hydrochloride] | 20 |  | 29

Further lines, with some results ahead:

EC50 (human CaSR) [nM] | IC50 (CYP2D6) [nM] | Compound | inhibition in vivo at 3 mg/kg [1] [%]
5 |  | C[C@@H](NCC1CCN(c2ncc(C(=O)O)cc2Cl)CC1c1ccccc1)c1cccc2ccccc12 (stereo partly drawn) [Example 31, 5-chloro-6-[4-({[(1R)-1-(1-naphthyl)ethyl]amino}methyl)-3-phenylpiperidin-1-yl]nicotinic acid hydrochloride] | 24
2.6 |  | C[C@@H](NCC1CCN(c2nc(C(=O)O)cs2)CC1c1ccccc1)c1cccc2ccccc12 (stereo partly drawn) [Example 39, 2-[4-({[(1R)-1-(1-naphthyl)ethyl]amino}methyl)-3-phenylpiperidin-1-yl]-1,3-thiazole-4-carboxylic acid hydrochloride] | 23
7.6 | ≥ 20000 | C[C@@H](NCC1CCN(c2cccc(C(=O)O)c2)CC1c1ccccc1F)c1cccc2ccccc12 (stereo partly drawn) [Example 35, 3-[3-(2-fluorophenyl)-4-({[(1R)-1-(1-naphthyl)ethyl]amino}methyl)piperidin-1-yl]benzoic acid hydrochloride] | 33
8.1 | ≥ 20000 | C[C@@H](NCC1CCN(c2cccc(C(=O)O)c2)CC1c1ccccc1)c1cccc2ccccc12 (stereo partly drawn) [Example 34, 3-[4-({[(1R)-1-(1-naphthyl)ethyl]amino}methyl)-3-phenylpiperidin-1-yl]benzoic acid hydrochloride] | 
5.5 | ≥ 20000 | C[C@@H](NCC1CCN(c2cccc(C(=O)O)n2)CC1c1ccccc1)c1cccc2ccccc12 (stereo partly drawn) [Example 30, 6-[4-({[(1R)-1-(1-naphthyl)ethyl]amino}methyl)-3-phenylpiperidin-1-yl]pyridine-2-carboxylic acid hydrochloride] | 
13 | ≥ 20000 | C[C@@H](NCC1CCN(c2c(F)cc(C(=O)O)cc2F)CC1c1ccccc1)c1cccc2ccccc12 (stereo partly drawn) [Example 52, 3,5-difluoro-4-[4-({[(1R)-1-(1-naphthyl)ethyl]amino}methyl)-3-phenylpiperidin-1-yl]benzoic acid hydrochloride] | 26
1.8 | ≥ 20000 | COc1cc(C(=O)O)ccc1NC(=O)N1CCC(c2ccccc2)C(CN[C@H](C)c2cccc3ccccc23)C1 (stereo partly drawn) [Example 3, 3-methoxy-4-({[3-({[(1R)-1-(1-naphthyl)ethyl]amino}methyl)-4-phenylpiperidin-1-yl]carbonyl}amino)benzoic acid] | 
